Measurements taken from US20180193412A1, “Method of In Vivo Treatment” (Hexima Limited, priority 2015, published 2018).

What was measured:
T. rubrum = assay: Inhibition of growth of Trichophyton rubrum by plant defensins (microtitre A595 antifungal assay); assay type: cell-based; conditions: ½ strength PDB, 30° C.
Protocol: (§1) The inhibitory effects of the plant defensins on the growth of Trichophyton rubrum, T. interdigitale, Microsporum fulvum and C. albicans (all obtained from the National Mycology Reference Centre, South Australia Pathology at the Women's and Children's Hospital, Adelaide, Australia) are measured essentially as described by Broekaert et al. (1990) FEMS Microbiol Lett 69:55-59.
(§2) Spores of T. rubrum, T. interdigitale and M. fulvum are isolated from sporulating fungus growing on ½ strength Sabouraud dextrose agar. Spores were removed from the plates by the addition of ½ strength potato dextrose broth (PDB). C. albicans cells are grown in Yeast Peptone Broth (YPD) for 16 h. Spore and cell concentrations are measured using a hemocytometer.
(§3) Antifungal assays are conducted in 96 well microtitre plates essentially as herein described. Wells are loaded with 20 μL of filter sterilized (0.22 Ξ m syringe filter, Millipore) defensin (10× stock for each final concentration) or water and 80 μL of 5×10^4 spores/mL (T. rubrum, T. interdigitale, M. fulvum) or 5,000 cells/mL (C. albicans) in ½ strength PDB. The plates are incubated at 30° C. Fungal growth is assayed by measuring optical density at 595 nm (A595) using a microtitre plate reader (SpectraMax Pro M2; Molecular Devices. Growth is allowed to proceed until the optical density (OD) of the fungus in the absence of any test defensin reached an OD of 0.2. Each test is performed in duplicate.

M. fulvum = assay: Inhibition of growth of Microsporum fulvum by plant defensins (microtitre A595 antifungal assay); assay type: cell-based; conditions: ½ strength PDB, 30° C., A595
Protocol: as §1, §2, §3

T. interdigitale = assay: Inhibition of growth of T. interdigitale by plant defensins (microtitre A595 antifungal assay); assay type: cell-based, Trichophyton interdigitale; conditions: ½ strength PDB, 30° C.
Protocol: as §1, §2, §3

T. albicans = assay: Inhibition of growth of C. albicans by plant defensins, Example 1 (microtitre A595 antifungal assay); assay type: cell-based; conditions: Table 3; ½ strength PDB, 30° C., A595
Protocol: as §1, §2, §3

C. albicans = assay: Inhibition of growth of Candida albicans, Example 2 antifungal assay; assay type: cell-based; conditions: Table 4; ½ strength PDB, 30° C., A595
Protocol: (§4) The inhibitory effects of the plant defensins on the growth of Candida albicans, Aspergillus fumigatus (obtained from the National Mycology Reference Centre, South Australia Pathology at the Women's and Children's Hospital, Adelaide, Australia), C. glabrata, C. tropicalis, A. flavus, A. niger, A. fumigants, Cryptococcus neoformans and C. gattii (obtained from Dee Carter, University of Sydney, New South Wales, Australia) are measured essentially as described by Broekaert et al. (1990) FEMS Microbiol Lett 69:55-59.
as §2, with “A. flavus. A. niger” for “T. rubrum, T. interdigitale”, “A. fumigatus” for “M. fulvum”, “albicans, C. glabrata, C. tropicalis, C. neoformans and C. gattii” for “albicans”
as §3, with “μm” for “Ξ m”, “(A. flavus, A. niger, A. fumigatus),” for “(T. rubrum, T. interdigitale, M. fulvum) or”, “albicans, C. glabrata, C. tropicalis) or 1×10^6 cells/mL (C. neoformans, C. gattii)” for “albicans)”

C. glabrata = assay: Inhibition of growth of C. glabrata, Example 2 antifungal assay; assay type: cell-based; conditions: ½ strength PDB, 30° C., A595
Protocol: as §4
as §2, with “A. flavus. A. niger” for “T. rubrum, T. interdigitale”, “A. fumigatus” for “M. fulvum”, “albicans, C. glabrata, C. tropicalis, C. neoformans and C. gattii” for “albicans”
as §3, with “μm” for “Ξ m”, “(A. flavus, A. niger, A. fumigatus),” for “(T. rubrum, T. interdigitale, M. fulvum) or”, “albicans, C. glabrata, C. tropicalis) or 1×10^6 cells/mL (C. neoformans, C. gattii)” for “albicans)”

C. tropicalis = assay: Inhibition of growth of C. tropicalis, Example 2 antifungal assay; assay type: cell-based; conditions: ½ strength PDB, 30° C., A595
Protocol: as §4
as §2, with “A. flavus. A. niger” for “T. rubrum, T. interdigitale”, “A. fumigatus” for “M. fulvum”, “albicans, C. glabrata, C. tropicalis, C. neoformans and C. gattii” for “albicans”
as §3, with “μm” for “Ξ m”, “(A. flavus, A. niger, A. fumigatus),” for “(T. rubrum, T. interdigitale, M. fulvum) or”, “albicans, C. glabrata, C. tropicalis) or 1×10^6 cells/mL (C. neoformans, C. gattii)” for “albicans)”

A. flavus = assay: Inhibition of growth of A. flavus, Example 2 antifungal assay; assay type: cell-based; conditions: ½ strength PDB, 30° C., A595
Protocol: as §4
as §2, with “A. flavus. A. niger” for “T. rubrum, T. interdigitale”, “A. fumigatus” for “M. fulvum”, “albicans, C. glabrata, C. tropicalis, C. neoformans and C. gattii” for “albicans”
as §3, with “μm” for “Ξ m”, “(A. flavus, A. niger, A. fumigatus),” for “(T. rubrum, T. interdigitale, M. fulvum) or”, “albicans, C. glabrata, C. tropicalis) or 1×10^6 cells/mL (C. neoformans, C. gattii)” for “albicans)”

A. niger = assay: Inhibition of growth of A. niger, Example 2 antifungal assay; assay type: cell-based; conditions: ½ strength PDB, 30° C., A595
Protocol: as §4
as §2, with “A. flavus. A. niger” for “T. rubrum, T. interdigitale”, “A. fumigatus” for “M. fulvum”, “albicans, C. glabrata, C. tropicalis, C. neoformans and C. gattii” for “albicans”
as §3, with “μm” for “Ξ m”, “(A. flavus, A. niger, A. fumigatus),” for “(T. rubrum, T. interdigitale, M. fulvum) or”, “albicans, C. glabrata, C. tropicalis) or 1×10^6 cells/mL (C. neoformans, C. gattii)” for “albicans)”

A. fumigatus = assay: Inhibition of growth of Aspergillus fumigatus, Example 2 antifungal assay; assay type: cell-based; conditions: ½ strength PDB, 30° C., A595
Protocol: as §4
as §2, with “A. flavus. A. niger” for “T. rubrum, T. interdigitale”, “A. fumigatus” for “M. fulvum”, “albicans, C. glabrata, C. tropicalis, C. neoformans and C. gattii” for “albicans”
as §3, with “μm” for “Ξ m”, “(A. flavus, A. niger, A. fumigatus),” for “(T. rubrum, T. interdigitale, M. fulvum) or”, “albicans, C. glabrata, C. tropicalis) or 1×10^6 cells/mL (C. neoformans, C. gattii)” for “albicans)”

C. neoformans = assay: Inhibition of growth of Cryptococcus neoformans, Example 2 antifungal assay; assay type: cell-based; conditions: ½ strength PDB, 30° C., A595
Protocol: as §4
as §2, with “A. flavus. A. niger” for “T. rubrum, T. interdigitale”, “A. fumigatus” for “M. fulvum”, “albicans, C. glabrata, C. tropicalis, C. neoformans and C. gattii” for “albicans”
as §3, with “μm” for “Ξ m”, “(A. flavus, A. niger, A. fumigatus),” for “(T. rubrum, T. interdigitale, M. fulvum) or”, “albicans, C. glabrata, C. tropicalis) or 1×10^6 cells/mL (C. neoformans, C. gattii)” for “albicans)”

C. gattii = assay: Inhibition of growth of C. gattii, Example 2 antifungal assay; assay type: cell-based; conditions: ½ strength PDB, 30° C., A595
Protocol: as §4
as §2, with “A. flavus. A. niger” for “T. rubrum, T. interdigitale”, “A. fumigatus” for “M. fulvum”, “albicans, C. glabrata, C. tropicalis, C. neoformans and C. gattii” for “albicans”
as §3, with “μm” for “Ξ m”, “(A. flavus, A. niger, A. fumigatus),” for “(T. rubrum, T. interdigitale, M. fulvum) or”, “albicans, C. glabrata, C. tropicalis) or 1×10^6 cells/mL (C. neoformans, C. gattii)” for “albicans)”

E. coli = assay type: cell-based, Escherichia coli; conditions: for IC50: Mueller-Hinton Broth, 37° C., 18 hours, up to 20 μM, read-out: IC50 against E. coli
Protocol: (§5) A single E. coli or B. subtilis colony was used to inoculate 5 ml of Luria-Bertani media and grown overnight at 37° C. The following day, the optical density of the culture was measured and the bacteria diluted to an optical density at 600 nm (OD600) of 0.01 in Mueller-Hinton Broth. Diluted E. coli or B. subtilis were added to 96-well plates with defensins at concentrations of 20 μM, 10 μM, 5 μM, 2.5 μM, 1.25 μM, 0.625 μM or 0.3125 μM. Plates were read at OD595 to obtain time zero data points. Plates were incubated at 37° C. for 18 hours before reading again at OD595 to assess the amount of bacterial growth.

B. subtilis = assay: Inhibition of the growth of Bacillus subtilis (OD595, 18 hours); assay type: cell-based; conditions: for IC50: Mueller-Hinton Broth, 37° C., 18 hours, up to 20 μM, read-out: IC50 against B. subtilis
Protocol: as §5

[1] = tested on: Trichophyton rubrum, T. interdigitale, Microsporum fulvum and C. albicans; assay: Inhibition assays of Example 1, summary across the range of fungal pathogens; assay type: cell-based; conditions: summary of Table 3, at the concentrations tested
Protocol: as §1, §2, §3

[2] = at the concentrations tested (0.3125-20 μM)

Row | Substance | IC50 against T. rubrum (T. rubrum) | IC50 against M. fulvum (M. fulvum) | IC50 against T. interdigitale (T. interdigitale) | IC50 against T. albicans (T. albicans) | IC50 against C. albicans (C. albicans) | IC50 against C. glabrata (C. glabrata) | IC50 against C. tropicalis (C. tropicalis) | IC50 against A. flavus (A. flavus) | IC50 against A. niger (A. niger) | IC50 against A. fumigatus (A. fumigatus) | IC50 against C. neoformans (C. neoformans) | IC50 against C. gattii (C. gattii) | IC50 (E. coli) | IC50 (B. subtilis) | Activity across the range of fungal pathogens [1] | Inhibition of growth of E. coli (E. coli; [2]) | Inhibition of growth of B. subtilis (B. subtilis; [2])
1 | HXL004: Class I plant defensin from Nicotiana benthamiana (RTCESQSHRFKGLCFSRSNCASVCHTEGFNGGHCRGFRRRCFCTRHC; HXL004 Nicotiana benthamiana) | 27.5 mg/L | 12 mg/L | 19 mg/L | 20 mg/L | 20 mg/L | 20 mg/L | 5 mg/L | >100 mg/L | 45 mg/L | 20 mg/L | 7 mg/L | 20 mg/L | 2.5 µM | 2.6 µM | intermediate activity |  | 
2 | HXL005: Class I plant defensin from Taraxcum kok-saghyz (KMCQTTSHAFSCVNDSGCSGSCEKQGFASGKCDGVRRRCTCYKKC; HXL005 Taraxcum kok-saghyz) | 3 mg/L | 5 mg/L | 3.5 mg/L | 22 mg/L | 22 mg/L | 11 mg/L | 12 mg/L | 25 mg/L | 7.5 mg/L | 11 mg/L | 5 mg/L | 14 mg/L | > 20 µM | > 20 µM | most effective | did not inhibit the growth | did not inhibit the growth
3 | HXL012: Class I plant defensin from Amaranthus retroflexus (RMCKAPSKLFRGMCGIRDSNCDSVCRAEGMAAGDCHGLRRRCICSRPC; HXL012 Amaranthus retroflexus) | 2 mg/L | 18 mg/L | 2 mg/L | 42 mg/L | 42 mg/L | >100 mg/L | 10 mg/L | 45 mg/L | 12.5 mg/L | 15 mg/L | 8 mg/L | 38 mg/L | > 20 µM | 20 µM | intermediate activity |  | 
4 | HXL035: Class I plant defensin from Picramnia pentandra (KVCTKPSKFFKGLCGFDRDCTVACKKEGLASGFCQNKGFFNVVCVCRKPC; HXL035 Picramnia pentandra) | 2 mg/L | 2 mg/L | 1 mg/L | 18 mg/L | 18 mg/L | 10 mg/L | 6 mg/L | 25 mg/L | 6 mg/L | 7.5 mg/L | 5 mg/L | 20 mg/L |  |  | most effective |  | 
